One test has as its system U87MG. As to the kind of experiment: Cell adhesion assay on matrigel coated wells. Format: cell-based, human. The following applies: Conc. 10 µM, percent of adhesion with respect to the control (100%).
In the next test the test system is U2OS. As to the kind of experiment: Matrigel cell invasion assay. The arrangement: key to Invasion Assay Inhibition (%) U2OS: +++: > 90%; ++: 50-90 %; +: < 50%; -: Not active. The conditions noted are these: Conc. 10 µM. In kind it is cell-based, human.
The test system of test [1] is HT1080 (human fibrosarcoma). As to the kind of experiment: Matrigel cell invasion assay. The conditions noted are these: HT-1080, HT1080, Conc. 10 µM. In kind it is cell-based. The procedure:
Heparanase inhibitors were then evaluated for their activity on the invasive potential of HT1080 (human fibrosarcoma) human cell lines, using the Matrigel cell invasion assay which allows to assess the cell invasion ability of malignant and normal cells.
Invasion assay was performed using BioCoat cell culture inserts (BioCoat 8.0µm PET Membrane 24 Well Permeable Supports, Corning). Filters were coated with 100 µl of 300 µg/ml Matrigel dissolved in coating buffer (0.01M Tris pH 8.0, 0.7% NaCl) (Becton-Dickinson Sciences). DMEM (Dulbecco's Modified Eagle's Medium) containing 5% FBS was added to the lower chambers. Cells were pre-treated with heparanase inhibitors for 24 h, detached and added to the upper chambers in media containing the inhibitors. Cells were allowed to invade for 24 h at 37°C in a CO2 incubator and then unmigrated cells were removed from the upper chamber with a cotton swab. The invading cells were fixed, stained with 0.1% crystal violet for 10 min at room temperature, photographed and counted under inverted microscope.
Test compounds were analyzed at fixed concentration for several fields, in duplicates. Activity of test compounds was compared to the reference compound. Activity of most interesting compound was confirmed in a second cell invasion assay. Data were expressed as the percent invasion with respect to cell migration through uncoated insert membrane. (Table 5)

The target of another test is T1, heparanase (Homo sapiens, UniProt Q9Y251).
T1 construct: 100 µM fondaparinux, 2.5 nM heparanase and serial dilutions of test compounds
T1 sequence (Q9Y251 158-543 limits assumed): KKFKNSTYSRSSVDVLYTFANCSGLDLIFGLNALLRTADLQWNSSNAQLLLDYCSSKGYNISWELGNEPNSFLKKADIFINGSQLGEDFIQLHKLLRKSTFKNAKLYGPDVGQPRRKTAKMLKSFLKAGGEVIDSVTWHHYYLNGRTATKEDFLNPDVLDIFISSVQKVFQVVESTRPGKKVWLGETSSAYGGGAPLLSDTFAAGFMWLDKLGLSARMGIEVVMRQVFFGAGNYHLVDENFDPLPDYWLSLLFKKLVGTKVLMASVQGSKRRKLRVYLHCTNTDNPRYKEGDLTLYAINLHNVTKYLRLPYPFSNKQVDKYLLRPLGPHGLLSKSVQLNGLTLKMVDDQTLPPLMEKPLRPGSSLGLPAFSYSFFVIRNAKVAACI
T1 sequence (Q9Y251 36-109 limits assumed): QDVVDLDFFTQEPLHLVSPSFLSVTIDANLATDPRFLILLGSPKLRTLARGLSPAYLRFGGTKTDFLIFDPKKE
As to the kind of experiment: AGA*IA assay: heparanase-catalyzed fondaparinux cleavage, colorimetric (WST-1). Format: biochemical. The conditions noted are these: 2.5 nM heparanase, 100 µM fondaparinux, pH 5.0, 3 h at 37°C; class symbols; read-out: AGAIA assay (IC50). The procedure: All compounds were tested in a simple, accurate and robust microplate assay based on the cleavage of the synthetic heparin fragment, the pentasaccharide Fondaparinux (AGA*IA). This assay was originally developed by Hammond and coworkers [Hammond E, Li CP, Ferro V. Development of a colorimetric assay for heparanase activity suitable for kinetic analysis and inhibitor screening. […] Fondaparinux is cleaved by heparanase to generate a reducing disaccharide, which can be quantitatively measured via a colorimetric or a fluorescence assay, the last by the fluorescent sensor polymer-H [Schiemann S, Lühn S, Alban S. Development of both colorimetric and fluorescence heparinase activity assays using fondaparinux as substrate.
The assay measures the appearance of the disaccharide product of heparanase-catalyzed fondaparinux cleavage colorimetrically using the tetrazolium salt WST-1. Assay was essentially performed as described with minor modifications. Briefly, NUNC ELISA 96-well plates were pre-treated with a solution of 4% BSA (bovin serum albumin) in phosphate-buffered saline containing 0.05% Tween 20 (PBST), for 2 h at 37°C, then washed three times with PBST, dried by tapping on paper towel and stored at -20°C. Before use, once again, the plates were washed with PBST.
Then, the absorbance at 560 nm was measured through a microplate reader (Victor 3, Perkin Elmer).
Finally, the measurements were corrected by subtracting both the reagent background and the inner absorbance value of test compound.
On the technique in general: Tetrazolium assays rely on reduction of a dye to a coloured formazan, in cell work by metabolically active cells.

The results in this text go back to patent publication EP3381906A1, “COMPOUNDS FOR USE AS HEPARANASE INHIBITORS” (Leadiant Biosciences SA, priority 2017, dated 2018).

A word on the inhibition: it is the percentage by which the read-out fell short of the control. One may read the IC50 as the concentration at which inhibition is half-maximal. `COc1cc(N=Nc2cc(S(=O)(=O)O)cc3cc(S(=O)(=O)O)cc(O)c23)c(C)cc1NC(=O)Nc1cc(C)c(N=Nc2cc(S(=O)(=O)O)cc3cc(S(=O)(=O)O)cc(O)c23)cc1OC` [SST0597]: the “Adhesion Assay (%) U87MG” value in the test with U87MG is given as “∼ 23%”. Besides, the “Invasion Assay Inhibition (%) U2OS” value with U2OS is “-”. For the same compound, the inhibition at 10 µM in test [1] was above 90%. Moreover, the IC50 on heparanase lay in the range of 50 to 490 nM.
